{"source": "patent US9913870B2", "about": "“Method for stimulating AMP-activated protein kinase” (DHARMA BIOMEDICAL, LLC, priority 2012, dated 2018)", "key": {"[1]": {"tested_on": "3T3-L1 adipocytes", "test": "Glucose uptake in differentiated adipocytes", "assay_type": "cell-based", "conditions": "72 hours", "description": "3T3-LI preadipocytes were used for glucose uptake and they were differentiated in the same manner as for adipocyte staining. The differentiated adipocytes (0.5×10^6) were treated with increasing concentrations (2-100 μg/ml) of guggul extracts for 72 hours in DMEM medium containing 1 μM insulin. 2,4-Thiazolidinedione (0.005 μM-0.1 μM) was used as a positive control for comparison. After 72 hours, the medium was replaced with starving medium (DMEM without FBS) for 2 hours at 37° C. and then with 3 ml KRH buffer (136 mM NaCl, 4.7 mM KCl, 1.25 mM CaCl2, 1.25 mM Mg SO4, 10 mM Hepes, pH 7.4) with 1 uM insulin at 37° C. for 30 min. For glucose uptake, 4.5 mg/ml glucose was added into the KRH buffer and plates were incubated for another 15 min. The plates were washed 4 times with KRH buffer, cells were lysed with RIPA buffer (0.5 ml/plate). The protein concentration of the extract was estimated and 500 ug extract was used for glucose estimation using the assay kit from Sigma Chemical Co., MO. The absorbance of the reaction mixture was measured at 340 nm and glucose concentration calculated."}, "[2]": {"tested_on": "CCL-110 skin fibroblasts", "test": "Cytotoxicity assay (MTT, Cell Proliferation I kit)", "assay_type": "cell-based, human", "conditions": "up to 100 μg mL−1, 24 hours", "description": "CCL-110 skin fibroblasts were cultured and plated at a density of 0.5×10^4 cells per well in 96-well tissue culture multiwell plates in EMEM medium. On the next day when cells were attached, they were treated with increasing concentrations (0-100 μg mL^−1) of GU-TC7 and CoQ10 (CoQ10 purchased from Sigma Chemical Co., St. Louis, Mo., U.S.A.) at 37° C. for 24 hours in a CO2 incubator maintained at 5% CO2 and 95% air. Cell proliferation assay was performed using the Cell Proliferation I kit (Roche Biochemicals, Indianapolis, Ind., U.S.A.) according to the manufacturer's protocol. The percentage survival of cells at each concentration was calculated based on the untreated control and plotted against drug concentrations (Cochrane, C. B. et al. “Anticancer effects of Annona glabra plant extracts in human leukemic cell lines” Anticancer Res., 2008, 28:965-971). Cytotoxicity assay was repeated three times with triplicate samples in each and mean values calculated."}, "[3]": {"tested_on": "MMP-1", "test": "MMP-1 expression ELISA in CCL-110 fibroblasts, with and without TNF-α", "assay_type": "cell-based, human", "set-up": "MMP-1 expression compared to untreated CCL-110 cells: dose or concentration left out as unconfirmed", "conditions": "for MMP-1 protein expression: CCL-110 fibroblasts, 24 hours, 0-100 μg mL−1, without TNF-α", "description": "CCL-110 skin fibroblast cells (10^5 mL^−1) were plated in 0.5% FBS containing EMEM for 24 hours for starvation and then treated with increasing concentrations of GU-TC7 and CoQ10 (0-100 μg mL^−1) for another 24 hours with and without the positive control ([…]). The medium was harvested and analyzed for MMP-1 (ng mL^−1) using the human MMP-1 ELISA kit from R&D Systems (Minneapolis, Minn., U.S.A.) according to the manufacturer's instructions. MMP-1 ELISA studies were repeated three times, with duplicate samples in each assay."}, "[4]": {"tested_on": "type I collagen", "test": "Collagen type I expression ELISA in CCL-110 fibroblasts", "assay_type": "cell-based, human", "conditions": "24 hours, increasing concentrations", "description": "CCL-110 human fibroblast cells (0.5×10^6) were treated with increasing concentrations of GU-TC7 and CoQ10 for 24 hours in 0.5% starving medium. On the next day, the medium was completely removed, washed with phosphate buffered saline once and lysed with 500 μL of 0.05 M acetic acid (pH 2.8-3.0) and 50 μL of pepsin solution by incubating at 4° C. for 48 hours. Later, […] of 10×TBS (1 M Tris, 2 M NaCl, 50 mM CaCl2) was added, and pH was adjusted to 8.0 with 1 N NaOH, and 50 μL of human pancreatic elastase was added followed by the incubation for another 48 hours at 4° C. The cells were scraped and transferred to eppendorf tubes and centrifuged for 10 min at 10 000 rpm. The supernatant was transferred to a new eppendorf tube, and protein concentration of the extract was determined. The type I collagen in the extract was analyzed using the human type 1 collagen ELISA kit from MD Bio-products (St. Paul, […]., U.S.A.)."}, "[5]": {"tested_on": "human elastase", "test": "PMN-elastase expression ELISA in CCL-110 fibroblasts", "assay_type": "cell-based", "conditions": "24 hours", "description": "CCL-110 skin fibroblast cells (10^6) were plated in EMEM containing 0.5% FBS and treated with increasing concentrations of GU-TC7 and CoQ10 for 24 hours in a CO2 incubator. The monolayer was lysed with 500 μL of RIPA buffer (50 mM Tris PH 7.4, 150 mM NaCl, 0.1% SDS, 0.5% Sodium deoxycholate, 1% Triton X-100 with one tablet for 25 mL of buffer) and protein concentration of the cellular extract was determined. Cellular extract (100 μg protein) was analyzed for the expression of human elastase using the PMN-Elastase ELISA kit form Alpco Immunoassays (Salem, N.H., U.S.A.)."}, "[6]": {"tested_on": "HSP70", "test": "HSP70 expression ELISA in Menadione-stressed HepG2 cells", "assay_type": "cell-based, human", "conditions": "50 μM, 3 hours", "description": "A human liver cell line (HepG2) was used to study the expression of HSP70 in GU-MCT treated cells. The cells (2×10^6/4 ml) were grown in Eagles minimal essential medium and treated with 50 μM Menadione (Vitamin K analogue) for 3 hours in order to induce stress in the presence or absence of increasing concentrations of GU-MCT (0-100 μg/ml). The cells were harvested by scraping and cell lysate prepared by homogenizing cells in 0.5 ml of lysis buffer (R&D systems, Minneapolis, Minn.). Protein concentration of cell lysate was estimated and 10 μg protein was used for ELISA. The ELISA kit from R&D systems, MN was used to analyze the HSP70 protein expression (pg/ml) in the cell extract. The percentage of change in HSP70 expression was calculated based on the expression in untreated sample (100%)."}, "[7]": {"tested_on": "HepG2 cells", "test": "HDL and LDL/VLDL cholesterol quantification in HepG2 cells", "assay_type": "cell-based, human", "description": "HepG2 cells (2×106) were incubated with increasing concentrations of Glucodox (0-100 ug/ml) for 72 hours at 37° C. The cells, after washing with PBS, were lysed with methanol:choloroform […] solution. Both HDL an LDL fractions were separated and estimated using the HDL and LDL/VLDL quantification kit (MBL International Corporation, MA)."}}, "note": "Entries after “also recorded” stand apart in the source; their conditions may differ."}
{"molecule": "O=C1CSC(=O)N1", "note": "[2,4 Thiazolidinedione, 2,4-Thiazolidinedione]", "values": [{"measurement": "glucose uptake (insulin sensitivity)", "setting": "[1]", "result": "more potent than the guggul extracts"}]}
{"molecule": "COC1=C(OC)C(=O)C(C/C=C(\\C)CC/C=C(\\C)CC/C=C(\\C)CC/C=C(\\C)CC/C=C(\\C)CC/C=C(\\C)CC/C=C(\\C)CC/C=C(\\C)CC/C=C(\\C)CCC=C(C)C)=C(C)C1=O", "note": "[CoQ10, coenzyme Q10]", "values": [{"measurement": "cytotoxic effects on CCL-110 skin fibroblasts", "setting": "[2]", "result": "no cytotoxic effects"}, {"measurement": "cytotoxic effects on CCL-110 skin fibroblasts", "setting": "[2]; listed as Coenzyme Q10", "result": "little cytotoxicity"}, {"measurement": "MMP-1 protein expression", "setting": "[3]", "result": "inhibits MMP-1 at 5 μg mL^−1, the inhibition rate remained almost constant with increasing concentrations"}, {"measurement": "MMP-1 protein expression", "setting": "[3]; listed as Coenzyme Q10", "result": "inhibition of MMP-1 expression"}, {"measurement": "type I collagen synthesis", "setting": "[4]", "result": "inhibitory trend was noticed with increasing doses"}, {"measurement": "type I collagen synthesis", "setting": "[4]; listed as Coenzyme Q10", "result": "enhanced synthesis of type I collagen"}, {"measurement": "human elastase expression", "setting": "[5]", "result": "no such inhibition was evident; also recorded: no inhibition of elastase at any evaluated concentration"}]}
{"molecule": "CC1=CC(=O)c2ccccc2C1=O", "note": "[Menadione]", "values": [{"measurement": "down regulation of HSP70 expression", "setting": "[6]", "result": 40, "unit": "%"}]}
{"molecule": "CC[C@H](C)C(=O)O[C@H]1CCC=C2C=C[C@H](C)[C@H](CC[C@@H]3C[C@@H](O)CC(=O)O3)[C@H]21", "note": "[Mevastatin]", "values": [{"measurement": "HDL in cellular extracts and cell culture medium", "setting": "[7]", "result": "not induced"}]}
{"molecule": "TNF-α", "values": [{"measurement": "MMP-1 expression compared to untreated CCL-110 cells", "setting": "[3]; TNF-α treatment", "result": "three times"}]}
